Test results reported in PubChem BioAssay AID588388 (NMMLSC, 2011).
The source made the active and inactive calls.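 Rule for the calls: active = half-effect dose EC50 at most 10 µM and% response shifting 30% or more across doses, valid fit; inactive = the rest.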

These molecules were tested against GTPase HRas (Homo sapiens) (UniProt P01112) (assay: wild-type H-Ras GTP-binding inhibitors, SAR follow-up, biochemical, multiplex bead flow cytometry, round 1 (AID 588388)). Settings: GST-H-Ras beads, Bodipy-GTP binding, EDTA.
Chain of GTPase HRas (Homo sapiens) (P01112 whole entry, looked up): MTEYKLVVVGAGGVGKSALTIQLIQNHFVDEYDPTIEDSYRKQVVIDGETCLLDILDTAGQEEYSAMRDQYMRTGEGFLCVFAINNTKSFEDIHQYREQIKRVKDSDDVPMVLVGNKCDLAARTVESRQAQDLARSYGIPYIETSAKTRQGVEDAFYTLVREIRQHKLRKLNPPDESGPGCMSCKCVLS

Q: With `CC1Cc2c(sc(NC(=S)NC(=O)c3ccccc3)c2C(=O)O)CO1` (configuration not stated) as the molecule, how does the EC50 read?
A: 54 nM

Q: Which EC50 does the source give for `CC1(C)Cc2c(sc(NC(=S)NC(=O)c3ccccc3F)c2C(=O)O)CO1` here?
A: 50 nM

Q: `CC1(C)Cc2c(sc(NC(=O)NC(=O)c3ccccc3)c2C(=O)O)CO1` was tested. Which EC50 did it give?
A: 149 nM

Q: For `CC1(C)Cc2c(sc(NC(=S)NC(=O)c3ccccc3)c2C(=O)O)CO1`, which EC50 is on record?
A: 78 nM

Q: For `CC1(C)CCc2sc(NC(=S)NC(=O)c3ccccc3)c(C(=O)O)c2C1`, which EC50 is on record?
A: 67 nM

Q: For `COc1ccc(C(=O)NC(=S)Nc2sc3c(c2C(=O)O)CC(C)(C)OC3)cc1`, which EC50 is on record?
A: 108 nM

Q: Which EC50 does the source give for `CC1(C)Cc2c(sc(NC(=S)NC(=O)c3ccc(Br)cc3)c2C(=O)O)CO1` here?
A: 257 nM

Q: Which EC50 does the source give for `O=C(NC(=S)Nc1sc2c(c1C(=O)O)CCOC2)c1ccccc1` here?
A: 33 nM

Q: With `CC1(C)Cc2c(sc(NC(=S)NC(=O)c3ccccc3Br)c2C(=O)O)CO1` as the molecule, how does the EC50 read?
A: 46 nM

Q: With `CC1(C)Cc2c(sc(NC(=S)NC(=O)c3cccc(F)c3)c2C(=O)O)CO1` as the molecule, how does the EC50 read?
A: 290 nM

Q: Which EC50 does the source give for `COc1cccc(C(=O)NC(=S)Nc2sc3c(c2C(=O)O)CC(C)(C)OC3)c1` here?
A: 30 nM

Same assay, conditions: GST-H-Ras beads, Bodipy-GTP binding, EDTA, at 100 µM (top of the series)

Q: Which “% response (lower = inhibition)” value does the source give for `CC1(C)Cc2c(sc(NC(=S)NC(=O)c3cccc(Br)c3)c2C(=O)O)CO1` here?
A: inactive

Q: Which “% response (lower = inhibition)” value does the source give for `CC(C)(C)OC(=O)c1c(NC(=S)NC(=O)c2ccccc2)sc2c1CCOC2` here?
A: inactive

Q: With `CC1(C)Cc2c(sc(NC(=S)Nc3ccccc3)c2C(=O)O)CO1` as the molecule, how does the “% response (lower = inhibition)” value read?
A: inactive

Q: With `Cc1ccc(NC(=O)Nc2sc3c(c2C(=O)O)CCN(C)C3)cc1` as the molecule, how does the “% response (lower = inhibition)” value read?
A: inactive

Q: How did the “% response (lower = inhibition)” value turn out when `CCOC(=O)c1c(NC(=S)Nc2ccccc2)sc2c1CC(C)(C)OC2` was run?
A: inactive

Q: Which “% response (lower = inhibition)” value does the source give for `CCOC(=O)c1c(NC(=O)Nc2ccc(F)cc2)sc2c1CCN(C)C2` here?
A: inactive

Q: How did the “% response (lower = inhibition)” value turn out when `CC1(C)Cc2c(sc(NC(=O)Cc3ccccc3)c2C(=O)O)CO1` was run?
A: inactive

Q: For `COC(=O)c1c(NC(=S)NC(=O)c2ccccc2)sc2c1CC(C)(C)OC2`, which “% response (lower = inhibition)” value is on record?
A: inactive

Q: How did the “% response (lower = inhibition)” value turn out when `CCOC(=O)c1c(NC(=S)NC(=O)c2ccccc2)sc2ccccc12` was run?
A: inactive

Q: For `CCOC(=O)c1c(N)sc2ccccc12`, which “% response (lower = inhibition)” value is on record?
A: inactive

Q: How did the “% response (lower = inhibition)” value turn out when `CCOC(=O)c1c(NC(=O)Nc2ccc(C)cc2)sc2c1CCN(C)C2` was run?
A: inactive

Q: For `CN1CCc2c(sc3nc(Nc4ccc(F)cc4)oc(=O)c23)C1`, which “% response (lower = inhibition)” value is on record?
A: inactive

Q: With `CN1CCc2c(sc(NC(=O)Nc3ccc(F)cc3)c2C(=O)O)C1` as the molecule, how does the “% response (lower = inhibition)” value read?
A: inactive

Q: For `Cc1ccc(Nc2nc3sc4c(c3c(=O)o2)CCN(C)C4)cc1`, which “% response (lower = inhibition)” value is on record?
A: inactive

Q: With `COC(=O)c1c(N)sc2c1CC(C)(C)OC2` as the molecule, how does the “% response (lower = inhibition)” value read?
A: inactive

Q: Which “% response (lower = inhibition)” value does the source give for `CCOC(=O)c1c(NC(=O)NC(C)(C)C)sc2c1CCN(C)C2` here?
A: inactive
